Reference: patent US20240317777A1, “NOVEL MACROCYCLIC AMINOPYRAZOLE COMPOUNDS AS CDK2 INHIBITORS” (Accutar Biotechnology Inc., priority 2023, published 2024)
Where two headings read alike, the source gives them in different places.

Experiments:
[1] = the molecule shown is the open-chain precursor, other bond
[2] = the molecule shown is the open-chain precursor, other bond, 18-membered ring, DIEA, THF
[3] = the molecule shown is the open-chain precursor; other bond; 18-membered ring; DIEA; THF; 1.83 mM; 80.0 °C
[4] = other bond, DIEA

For `CC(C)(C)n1nc([C@H]2CC[C@@H](OC(=O)Oc3ccc([N+](=O)[O-])cc3)C2)cc1Nc1cc(CCCCCN)nc(C(F)F)c1`, which ring closure, isolated yield ([1]; 18-membered ring, DIEA, THF, 3.27 mM, 30.0 °C) is on record?
Its ring closure, isolated yield is 44.1%.

Which ring closure, isolated yield ([1]; 18-membered ring, DIEA, THF, 1.11 mM, 25.0 °C) does the source give for `CC(C)(C)n1nc([C@H]2CC[C@@H](OC(=O)Oc3ccc([N+](=O)[O-])cc3)C2)cc1Nc1cc(OCCCCN)nc(C(F)F)c1` here?
The ring closure, isolated yield was 65%.

With `CC(C)(C)n1nc([C@H]2CC[C@@H](OC(=O)Oc3ccc([N+](=O)[O-])cc3)C2)cc1Nc1ccnc(OCC2CC(N)C2)c1` (stereo partly drawn) as the molecule, how does the ring closure, crude yield ([2]; 1.21 mM, 70.0 °C) read?
Its ring closure, crude yield is 96.7%.

For `CC(C)(C)n1nc([C@H]2CC[C@@H](OC(=O)Oc3ccc([N+](=O)[O-])cc3)C2)cc1Nc1cncc(OCC2CC(N)C2)n1` (stereo partly drawn), which ring closure, isolated yield ([1]; 18-membered ring, DIEA, DMSO, 2.3 mM, 100.0 °C) is on record?
The ring closure, isolated yield was 38%.

With `CC(C)(C)n1nc([C@H]2CC[C@@H](OC(=O)Oc3ccc([N+](=O)[O-])cc3)C2)cc1Nc1cncc(OCCCCN)c1` as the molecule, how does the ring closure, isolated yield ([1]; 18-membered ring, DIEA, THF, 2.01 mM, 25.0 °C) read?
Its ring closure, isolated yield is 49.3%.

For `CC(C)(C)n1nc([C@H]2C[C@@H](F)[C@@H](OC(=O)Oc3ccc([N+](=O)[O-])cc3)C2)cc1Nc1ccnc(OCC2CC(N)C2)c1` (stereo partly drawn), which ring closure, isolated yield ([1]; 18-membered ring, DIEA, THF, 1.7 mM, 60.0 °C) is on record?
Its ring closure, isolated yield is 37%.

For `CC(C)(N)CCCOc1cc(Nc2cc([C@H]3CC[C@@H](OC(=O)Oc4ccc([N+](=O)[O-])cc4)C3)nn2C(C)(C)C)ccn1`, which ring closure, isolated yield ([1]; 18-membered ring, DIEA/DMAP, THF, 1.81 mM, 50.0 °C) is on record?
The ring closure, isolated yield was 88.8%.

With `CC(CC12CC(N)(C1)C2)Oc1cc(Nc2cc([C@H]3CC[C@@H](OC(=O)Oc4ccc([N+](=O)[O-])cc4)C3)nn2C(C)(C)C)cc(C(F)F)n1` (stereo partly drawn) as the molecule, how does the ring closure, isolated yield ([1]; 19-membered ring, DIEA, THF, 9.15 mM, 80.0 °C) read?
Its ring closure, isolated yield is 84.7%.

For `CC(N)CCCOc1cc(Nc2cc([C@H]3CC[C@@H](OC(=O)Oc4ccc([N+](=O)[O-])cc4)C3)nn2C(C)(C)C)ccn1` (stereo partly drawn), which ring closure, isolated yield ([1]; 18-membered ring, DIEA, THF, 2.06 mM, 30.0 °C) is on record?
Its ring closure, isolated yield is 98.5%.

For `CC(OCCCN)c1cc(Nc2cc([C@H]3CC[C@@H](OC(=O)Oc4ccc([N+](=O)[O-])cc4)C3)nn2C(C)(C)C)ccn1` (stereo partly drawn), which ring closure, crude yield ([2]; 6.34 mM, 100.0 °C) is on record?
Its ring closure, crude yield is 87.5%.

Which ring closure, isolated yield ([1]; 18-membered ring, DIEA, THF, 1.46 mM, 70.0 °C) does the source give for `C[C@@H](N)CC/C=C/c1cc(Nc2cc([C@H]3CC[C@@H](OC(=O)Oc4ccc([N+](=O)[O-])cc4)C3)nn2C(C)(C)C)ccn1` here?
The ring closure, isolated yield was 98.6%.

For `C[C@@H](N)CCCCc1cc(Nc2cc([C@H]3CC[C@@H](OC(=O)Oc4ccc([N+](=O)[O-])cc4)C3)nn2C(C)(C)C)ccn1`, which ring closure, isolated yield ([1]; 18-membered ring, DIEA, THF, 1.42 mM, 100.0 °C) is on record?
Its ring closure, isolated yield is 99.5%.

For `C[C@H](N)C(F)(F)CCOc1cc(Nc2cc([C@H]3C[C@@H](F)[C@@H](OC(=O)Oc4ccc([N+](=O)[O-])cc4)C3)nn2C(C)(C)C)ccn1`, which ring closure, isolated yield ([1]; 18-membered ring, DIEA, DMSO, 3.13 mM, 100.0 °C) is on record?
Its ring closure, isolated yield is 88%.

With `C[C@H](N)C(F)CCOc1cc(Nc2cc([C@H]3CC[C@@H](OC(=O)Oc4ccc([N+](=O)[O-])cc4)C3)nn2C(C)(C)C)ccn1` (stereo partly drawn) as the molecule, how does the ring closure, isolated yield ([1]; 18-membered ring, DIEA, DMSO, 1.71 mM, 100.0 °C) read?
Its ring closure, isolated yield is 97%.

Which ring closure, yield after HPLC [3] does the source give for `C[C@H](N)CC(F)(F)COc1cc(Nc2cc([C@H]3CC[C@@H](OC(=O)Oc4ccc([N+](=O)[O-])cc4)C3)nn2C(C)(C)C)ccn1` here?
Its ring closure, yield after HPLC is 66.2%.

For `C[C@H](N)CCCCc1cc(Nc2cc([C@H]3CC[C@@H](OC(=O)Oc4ccc([N+](=O)[O-])cc4)C3)nn2C(C)(C)C)ccn1`, which ring closure, crude yield ([2]; 0.92 mM, 20.0 °C) is on record?
Its ring closure, crude yield is 91.9%.

Which ring closure, crude yield ([2]; 1.71 mM, 25.0 °C) does the source give for `C[C@H](N)CCCOc1cc(Nc2cc([C@H]3CC[C@@H](OC(=O)Oc4ccc([N+](=O)[O-])cc4)C3)nn2C(C)(C)C)c(F)cn1` here?
The ring closure, crude yield was 99.9%.

Which ring closure, crude yield ([2]; 1.71 mM, 25.0 °C) does the source give for `C[C@H](N)CCCOc1cc(Nc2cc([C@H]3CC[C@@H](OC(=O)Oc4ccc([N+](=O)[O-])cc4)C3)nn2C(C)(C)C)cc(F)n1` here?
Its ring closure, crude yield is 97.8%.

With `C[C@H](N)CCCOc1cc(Nc2cc([C@H]3CC[C@@H](OC(=O)Oc4ccc([N+](=O)[O-])cc4)C3)nn2C(C)(C)C)ccn1` as the molecule, how does the ring closure, isolated yield ([1]; 18-membered ring, DIEA, THF, 3.53 mM, 50.0 °C) read?
The ring closure, isolated yield was 84.8%.

For `C[C@H](N)CCCOc1nccc(Nc2cc([C@H]3CC[C@@H](OC(=O)Oc4ccc([N+](=O)[O-])cc4)C3)nn2C(C)(C)C)n1`, which ring closure, isolated yield ([1]; 18-membered ring, DIEA, DMSO, 1.79 mM, 80.0 °C) is on record?
Its ring closure, isolated yield is 93%.

Which ring closure, crude yield ([2]; 0.55 mM, 25.0 °C) does the source give for `C[C@H](N)CCO[C@@H](C)c1cc(Nc2cc([C@H]3CC[C@@H](OC(=O)Oc4ccc([N+](=O)[O-])cc4)C3)nn2C(C)(C)C)ccn1` here?
The ring closure, crude yield was 86.5%.

Which ring closure, yield of all isomers ([4]; from C[C@H](N)CCCOc1cc(Nc2cc([C@H]3CC[C@@H](OC(=O)Oc4ccc([N+](=O)[O-])cc4)C3)nn2C(C)(C)C)ccn1, THF, 3.53 mM, 50.0 °C, 12.0 h) does the source give for `C[C@H]1CCCOc2cc(ccn2)Nc2cc(nn2C(C)(C)C)[C@H]2CC[C@H](C2)OC(=O)N1` here?
Its ring closure, yield of all isomers is 84.8%.

Which ring closure, yield of all isomers ([4]; from C[C@H](N)CCCOc1nccc(Nc2cc([C@H]3CC[C@@H](OC(=O)Oc4ccc([N+](=O)[O-])cc4)C3)nn2C(C)(C)C)n1, DMSO, 1.79 mM, 80.0 °C, 3.0 h) does the source give for `C[C@H]1CCCOc2nccc(n2)Nc2cc(nn2C(C)(C)C)[C@H]2CC[C@H](C2)OC(=O)N1` here?
Its ring closure, yield of all isomers is 93%.

For `C[C@H]1CCO[C@H](C)c2cc(ccn2)Nc2cc(nn2C(C)(C)C)[C@H]2CC[C@H](C2)OC(=O)N1`, which ring closure, yield of all isomers ([4]; from C[C@H](N)CCO[C@H](C)c1cc(Nc2cc([C@H]3CC[C@@H](OC(=O)Oc4ccc([N+](=O)[O-])cc4)C3)nn2C(C)(C)C)ccn1, THF, 0.86 mM, 25.0 °C, 12.0 h) is on record?
The ring closure, yield of all isomers was 92.1%.
